Here are results for 5 compounds from publication PMC9564300, “Cytotoxic Mechanism of Momilactones A and B against Acute Promyelocytic Leukemia and Multiple Myeloma Cell Lines” (Cancers, 2022).

Values joined by “and” are separate entries in the source; they are usually repeats but may differ in a detail not shown here. Equal values may be shown once.

The test system of experiment [1] is acute promyelocytic leukemia HL-60 cell line. As to the kind of experiment: Cell viability (MTT) assay on HL-60. It is filed as cell-based. The settings on record: Homo sapiens; for IC50: HL-60, 48 h. As to the method:
(§1) In this assay, culture media was prepared by adding fetal bovine serum (10%), L-glutamine (5 mM), penicillin (100 IU/mL), and streptomycin (100 µg/mL) to IMDM (Sigma-Aldrich, St. Louis, MO, USA). The cells (5 × 10^3 cells/well) were seeded into a 96-well plate filled with 100 µL of culture media and placed in a CO2 incubator at 37 °C. After 24 h, the cells were treated with MA, MB, and MAB with different concentrations (0.5, 1, 5, and 10 µM) for 48 h. Subsequently, 10 µL of the MTT solution (5 mg/mL, Sigma-Aldrich) was pipetted into each well. The cells were continuously incubated for 4 h. Finally, 100 µL of cell lysis buffer (10% SDS in 0.01 M HCl) was applied to dissolve the colored formazan crystals. Culture media instead of momilactones was used as the negative control. Meanwhile the drugs consisting of doxorubicin, all-trans retinoic acid (ATRA), the mixture of ATRA and arsenic trioxide (ATRA/ATO) (1:1, w/w), and bortezomib were tested as the standard inhibitors. The absorbance at 595 nm was scanned to determine the cell growth rate using a spectrophotometer (SpectraMAX M5, Molecular Devices, Sunnyvale, CA, USA). All tests were performed with three replications. The cytotoxic activity (% inhibition) of momilactones and/or inhibitors on the tested cell lines was as follows:Inhibition (%) = (ANC − AS)/ANC × 100(1) where ANC: absorbance of reaction with negative control, and AS: absorbance of reaction with momilactone and/or inhibitor.
(§2) Dose-responding curves and IC50 values (the required concentration for inhibiting 50% of cell viability) of momilactones and the standard inhibitors for cytotoxicity against tested cell lines were established. A lower IC50 indicates a stronger cytotoxic activity.

For experiment [2], the system named is multiple myeloma U266 cell line. The experiment is described as follows: Cell viability (MTT) assay on U266. The class given is cell-based. The settings on record: Homo sapiens; for IC50: U-266, U266, 48 h. As to the method: as §1, §2
The test system of experiment [3] is non-cancerous MeT-5A cell line. As to the kind of experiment: Cell viability (MTT) assay on MeT-5A. It is filed as cell-based. The settings on record: Homo sapiens, 48 h. On the procedure: as §1, §2
Experiment [4] deals with acute promyelocytic leukemia HL-60 cell line. The experiment is described as follows: Cell cycle assay (PI, flow cytometry) on HL-60. The settings on record: HL-60, 5 µM. The class given is cell-based, human. On the procedure: (§3) The cells (5 × 10^5 cells/well) were cultured and treated in triplicate following the same methods as the apoptosis assay. The FxCycle PI/RNase staining solution was applied according to the manufacturer’s instructions (Calbiochem, Darmstadt, Germany). The cell cycle distribution at each phase of G1, S, and G2 was determined based on the cell’s DNA content. The percentages of cells in different phases of the cell cycle were quantified by a flow cytometer (BD, Franklin Lakes, NJ, USA). In brief, the collected cells were washed with ice-cold PBS. Subsequently, ice-cold PBS in pure ethanol was added to disperse the cells. The obtained solution was stored at 4 °C for 24 h for fixing. For analysis, the cells were incubated with 10 mg/mL of RNase A (Sigma-Aldrich) for 5 min on ice. The following step was conducted by adding 1 mg/mL of PI (in PBS). After incubating for 10 min at room temperature, the cells were dissolved in 450 µL of PBS. The solution was then filtered using a nylon membrane to remove cell clumping before analysis. Subsequently, the flow cytometric measurement was immediately performed.
(In general: In flow cytometry, cells or beads pass a laser one at a time.)

Experiment [5] relates to BCL-2. As to the kind of experiment: Western blotting in U266: BCL-2. The class given is cell-based, human. The settings on record: U266, 5 µM. On the procedure: (§4) The cells (5 × 10^5 cells/well) were cultured and treated in triplicate following the same methods as the apoptosis and cell cycle assays. The cell lysates were conducted by rinsing cells with PBS, followed by adding 2× loading buffer two times (4% SDS, 10% 2-mercaptoethanol, 20% glycerol, 0.004% bromophenol blue, 0.125 M Tris-HCl, pH 6.8). The extracted protein ([…]) was subjected to sodium dodecyl sulfate (SDS)-polyacrylamide gels, applying 10% acrylamide, and subsequently transferred to a polyvinylidene fluoride membrane (Takara Bio, Shiga, Japan) by electroblotting. The membrane was blocked using 3% skim milk in PBS-0.05% Tween 20 (PBS-T) at 25 °C for 1 h. The incubation with each antibody (2 µg/mL) against anti-rabbit total p-38/MAPK, phosphorylated p-38/MAPK, BCL-2, procaspase-3, cleaved caspase-3, CDK1/cdc2, cyclin B1, and GAPDH (BioLegend, San Diego, CA, USA) in blocking buffer was conducted overnight at 4 °C. The following step was performed by washing the membrane with PBS-T in triplicate. The collected membrane was incubated with a secondary antibody of horseradish peroxidase-labeled goat anti-rabbit IgG (20 ng/mL) (IBL, Gunma, Japan) at 37 °C for 1 h. […] The relative expression (RE) was calculated by normalizing the intensity of targeted proteins to the intensity of the housekeeping protein GAPDH.

The subject of experiment [6] is non-cancerous MeT-5A cell line. As to the kind of experiment: Cell apoptosis (annexin V) assay on MeT-5A. It is filed as cell-based, human. The settings on record: 5 µM. As to the method: (§5) The procedure was conducted in triplicate following Lam et al.. In brief, the cells (5 × 10^5 cells/well) were seeded into a 6-well plate filled with 1.5 mL of culture media and cultured in a CO2 incubator for 24 h with the same condition as mentioned in the MTT assay. The cells were then treated with momilactones at a concentration of 5 µM for 24 and 48 h. The non-treated cells were used as a control. Harvested cells were washed twice with cold phosphate-buffered saline (PBS). After that, the control and treated cells were incubated with annexin V-conjugated fluorescein isothiocyanate (FITC) (Biolegend, San Diego, CA, USA) and propidium iodide (PI) for 15 min at 25 °C. The obtained cells were dissolved in 450 µL of PBS. The solution was filtered by a nylon membrane to prevent cell clumping and kept on ice until analysis. The intensities of annexin V-FITC and PI and the percentages of apoptotic cells were instantly determined by a flow cytometer (BD, Franklin Lakes, NJ, USA).

Experiment [7] deals with acute promyelocytic leukemia HL-60 cell line. As to the kind of experiment: Cell apoptosis (annexin V) assay on HL-60. It is filed as cell-based, human. The settings on record: HL-60, 5 µM. As to the method: as §5
Experiment [8] relates to cleaved caspase-3/procaspase-3. The experiment is described as follows: Western blotting in U266: cleaved caspase-3/procaspase-3. It is filed as cell-based, human. The settings on record: U266, 5 µM. As to the method:
as §4
Background: A western blot detects proteins with antibodies after separation by electrophoresis.

The test system of experiment [9] is non-cancerous MeT-5A cell line. The experiment is described as follows: Cell cycle assay (PI, flow cytometry) on MeT-5A. The settings on record: 5 µM, 48 h. It is filed as cell-based, human. As to the method: as §3
The subject of a further experiment is cyclin B1. As to the kind of experiment: Western blotting in HL-60: cyclin B1. The class given is cell-based, human. The settings on record: HL-60, 5 µM, control 1.17. On the procedure:
as §4

Experiment [10] concerns cleaved caspase-3/procaspase-3. The experiment is described as follows: Western blotting in HL-60: cleaved caspase-3/procaspase-3. It is filed as cell-based, human. The settings on record: HL-60, 5 µM, control 0.17. As to the method:
as §4

The next experiment relates to CDK1. The experiment is described as follows: Western blotting in HL-60: CDK1. It is filed as cell-based, human. The settings on record: HL-60, 5 µM, control 1.55. As to the method: as §4
Experiment [11] relates to phosphorylated p-38/total p-38. The experiment is described as follows: Western blotting in HL-60: phosphorylated p-38/total p-38. It is filed as cell-based, human. The settings on record: HL-60, 5 µM, control 0.48. As to the method: as §4
In experiment [12] the test system is phosphorylated p-38/total p-38. The experiment is described as follows: Western blotting in U266: phosphorylated p-38/total p-38. The class given is cell-based, human. The settings on record: U266, 5 µM, control 1.00. As to the method:
as §4

Experiment [13] relates to BCL-2. As to the kind of experiment: Western blotting in HL-60: BCL-2. The class given is cell-based, human. The settings on record: HL-60, 5 µM. On the procedure: as §4
In experiment [14] the test system is multiple myeloma U266 cell line. As to the kind of experiment: Cell apoptosis (annexin V) assay on U266. It is filed as cell-based, human. The settings on record: U266, 5 µM. On the procedure: as §5

In general, IC50 refers to the concentration needed to halve the response being measured. A lower IC50 goes with higher potency. Broadly, the inhibition is the relative decrease from the control value, in per cent.

For `COc1cccc2c1C(=O)c1c(O)c3c(c(O)c1C2=O)C[C@@](O)(C(=O)CO)C[C@@H]3O[C@H]1C[C@H](N)[C@H](O)[C@H](C)O1` [Doxorubicin, doxorubicin, reference compound], the IC50 turned out to be 5.22 ± 0.15 µM in experiment [1] and 0.24 ± 0.01 µM in experiment [2]. The inhibition at 10 µM in experiment [3] came to 49.2 ± 6.17%.
The compound `CC(C)C[C@H](NC(=O)[C@H](Cc1ccccc1)NC(=O)c1cnccn1)B(O)O` [bortezomib, reference compound] showed an IC50 in experiment [2] of 0.008 µM.
As for `CC1=C(/C=C/C(C)=C/C=C/C(C)=C/C(=O)O)C(C)(C)CCC1` [ATRA, all-trans retinoic acid, reference compound], 3.99 ± 0.16 µM corresponded to half-maximal inhibition in experiment [1] (IC50).
`C=C[C@]1(C)CC[C@@H]2C(=C[C@H]3OC(=O)[C@@]4(C)C(=O)CC[C@@]2(C)[C@@H]34)C1` [MA, momilactone A]: the inhibition at 10 µM in experiment [1] (HL-60, 10 µM, 48 h, read-out: HL-60 inhibition percentage at 10 µM) is 30.2%; in experiment [2] (U-266, U266, 10 µM, 48 h, read-out: U266 inhibition percentage at 10 µM), 41%; in experiment [3], 28.5 ± 2.93%.
Regarding `C=C[C@]1(C)CC[C@@H]2C(=C[C@H]3OC(=O)[C@]4(C)[C@H]3[C@]23CC[C@]4(O)OC3)C1` [MB, momilactone B], the IC50 turned out to be 4.49 ± 0.34 µM in experiment [1] and 5.09 ± 0.58 µM in experiment [2]. The “cells in G2 phase” value in [4] (24 h) turned out to be 30.1%; in experiment [4] (48 h) it was 29.2%. For the same compound, the “inhibition of BCL-2 expression compared to the control” value in the experiment on BCL-2 [5] (24 h) is given as 2.37 times. The “decrease of BCL-2 expression over the control” value with BCL-2 [5] (48 h) is listed as 4.41 fold. Also, the “% apoptosis (FITC+)” value was 2.9% and 2.87% in [6] (24 h); 10.3% in experiment [6] (48 h); 1.1% in [7] (24 h); 40.5% in experiment [7] (48 h); 16.9% in experiment [14] (24 h); 18.0% in experiment [14] (48 h). The FITC- cells in experiment [6] (24 h) came out at 97.1%; in experiment [6] (48 h), 89.7%; in experiment [7] (24 h), 98.9%; in experiment [7] (48 h) it was 59.5%; in [14] (24 h) it was 83.1%; in experiment [14] (48 h), 82.0%. The “increase in cell apoptosis compared to the non-treated control” value in experiment [6] (48 h) stood at 2.67 fold. In addition, the “increase in apoptotic process over the control” value in [7] (24 h) worked out at 1.30 fold. In addition, the entries for the “increase of cleaved caspase-3/procaspase-3 expression over the control” value in experiment [8] (24 h) and in [8] (48 h) were 5.33 times and 8.83 times, respectively. Besides, in [9], the “increase of cell percentage of sub-G1 compared to the untreated control” value was found to be 2.59 times. In [3], this compound displayed an inhibition at 10 µM of 38 ± 2.29%. The “RE of cyclin B1” value is 0.80 in the experiment with cyclin B1 (24 h) and 0.69 in the experiment with cyclin B1 (48 h). Moreover, the figures for the “RE of cleaved caspase-3/procaspase-3” value in experiment [10] (24 h) and in [10] (48 h) were 0.56 and 0.77, respectively. Also, the “RE of CDK1” value in the experiment on CDK1 (24 h) came out at 1.10; with CDK1 (48 h), 0.75. Further, the “relative expression (RE) of phosphorylated p-38/total p-38” value amounted to 1.15 in experiment [11] (24 h) and 0.96 in experiment [11] (48 h). For the same compound, the “RE of phosphorylated p-38/total p-38” value is on record as 2.47 in experiment [12] (24 h) and 2.35 in experiment [12] (48 h). Moreover, the “BCL-2 RE value, fold lower than the control” value in the experiment on BCL-2 [13] (24 h) is 1.92 fold; in the experiment on BCL-2 [13] (48 h), 2.32 fold.
